Experimental findings from US11498903B2 (BRISTOL-MYERS SQUIBB COMPANY, priority 2017, dated 2022) are described below.

Molecules are shown by their SMILES. Where two headings read alike, the source gives them in different places. Bounds are passed on as bounds.

The target of this test is T1, human APJ receptor (Homo sapiens, UniProt P35414).
T1 construct: expressed in transfected cells
T1 sequence (P35414 1-380): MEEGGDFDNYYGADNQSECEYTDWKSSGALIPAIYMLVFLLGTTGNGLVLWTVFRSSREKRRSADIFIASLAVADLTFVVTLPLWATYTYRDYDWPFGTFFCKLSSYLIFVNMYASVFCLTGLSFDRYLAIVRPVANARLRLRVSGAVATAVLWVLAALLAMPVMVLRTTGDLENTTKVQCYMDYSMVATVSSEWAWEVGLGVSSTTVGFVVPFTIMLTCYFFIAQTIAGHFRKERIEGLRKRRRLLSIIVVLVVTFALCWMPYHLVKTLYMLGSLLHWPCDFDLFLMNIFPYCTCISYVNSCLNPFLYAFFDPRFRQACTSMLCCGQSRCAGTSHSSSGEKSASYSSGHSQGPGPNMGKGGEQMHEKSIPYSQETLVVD
Briefly: Intracellular cAMP accumulation assay (APJ hcAMP, HTRF). Type of test: cell-based. Put shortly:
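Inhibition of 2 μM forskolin-driven cAMP ([…] present) measured by HTRF in 5,000 HEK293 cells/well stably expressing human APJ, 30 min, room temperature. EC50 came from a variable-slope sigmoidal fit; Ymax was relative to (Pyr1)apelin-13 set at 100%.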

The mark [1] stands for this setting: Table 1, HEK293 cells stably expressing human APJ receptor, inhibition of forskolin-mediated cAMP production, read-out: APJ hcAMP EC50.
[2] abbreviates: human APJ, cAMP, potency range class, read-out: APJ cAMP Human EC50.
[3] abbreviates: Table 2, HEK293 cells stably expressing human APJ receptor, read-out: APJ cAMP Human EC50.

On to `CCCC(NC(=O)c1ccc(-c2c(Cl)cccc2-c2nc3ccccc3[nH]2)c(C(=O)O)c1)c1ccccc1OC(F)(F)F` (single isomer, unassigned) [Example 191], for which the EC50 fell in the range of 10 to 100 nM under setting [1] and 10 to 100 nM under setting [2].
`CCCC(NC(=O)c1ccc(-c2c(Cl)cccc2-c2nc3ccccc3[nH]2)c(C(=O)O)c1)c1ccncc1` (single isomer, unassigned) [Example 192]: the EC50 reads like this: under setting [1], 10 to 100 nM; under setting [2], 10 to 100 nM.
Take `CCCC(NC(=O)c1ccc(-c2c(Cl)cccc2-c2nc3cc(OC)c(F)cc3[nH]2)c(C(=O)O)c1)C1CCCC1` (single isomer, unassigned) [Example 195]: the EC50 was less than 10 nM under setting [1] and less than 10 nM under setting [2].
On to `CCC[C@H](NC(=O)c1ccc(-c2c(Cl)cccc2-c2nc3cc(OC)c(F)cc3[nH]2)c(C(=O)O)c1)c1ccccc1C(F)(F)F` (single isomer, unassigned) [Example 196], for which the EC50 was less than 10 nM under setting [1] and less than 10 nM under setting [2].
For the molecule `CCCC(NC(=O)c1ccc(-c2c(Cl)cccc2-c2nc3cc(OC)c(F)cc3[nH]2)c(C(=O)O)c1)c1ccc(Cl)cc1OC` (single isomer, unassigned) [Example 197], the EC50 is, setting by setting: under setting [1], less than 10 nM; under setting [2], less than 10 nM.
Regarding `CCCC(NC(=O)c1ccc(-c2c(Cl)cccc2-c2nc3cc(OC)c(F)cc3[nH]2)c(C(=O)O)c1)C1CCCCC1` (single isomer, unassigned) [Example 198], the EC50 is, setting by setting: under setting [1], less than 10 nM; under setting [2], less than 10 nM.
On to `CCC[C@H](NC(=O)c1ccc(-c2c(Cl)cccc2-c2nc3cc(Cl)c(F)cc3[nH]2)c(C(=O)O)c1)c1ccncc1` (single isomer, unassigned) [Example 199], for which the EC50 under setting [1] is less than 10 nM and the EC50 under setting [2] was less than 10 nM.
In the case of `CCC[C@H](NC(=O)c1ccc(-c2c(Cl)cccc2-c2nc3cc(Cl)c(F)cc3[nH]2)c(C(=O)O)c1)c1ccc(Cl)cc1OC` (single isomer, unassigned) [Example 200], the EC50 was less than 10 nM under setting [1] and less than 10 nM under setting [2].
Regarding `CCCC(NC(=O)c1ccc(-c2c(Cl)cccc2-c2nc3cc(Cl)c(F)cc3[nH]2)c(C(=O)O)c1)c1c(C)cc(C)cc1C` (single isomer, unassigned) [Example 201], the EC50 is less than 10 nM under setting [1] and less than 10 nM under setting [2].
On to `COC(=O)c1cc(C(=O)N[C@H](c2ccc(Cl)cc2)C2CC2)ccc1-c1c(Cl)cccc1-c1nc2cc(OC)c(F)cc2[nH]1` (single isomer, unassigned) [Example 204], for which the EC50 runs as follows: under setting [1], 101 to 500 nM; under setting [2], 101 to 500 nM.
For the molecule `COc1cc2nc(-c3cccc(Cl)c3-c3ccc(C(=O)N[C@H](c4ccc(Cl)cc4)C4CC4)cc3CO)[nH]c2cc1F` (single isomer, unassigned) [Example 205], the EC50 is 10 to 100 nM under setting [1] and 10 to 100 nM under setting [2].
For `CCCC(NC(=O)c1ccc(-c2cc(Cl)ccc2-c2nc3ccccc3[nH]2)c(C(=O)O)c1)c1ccc(F)cc1` (single isomer, unassigned) [Example 209, 2′-(1H-1,3-benzodiazol-2-yl)-5′-chloro-4-{[1-(4-fluorophenyl)butyl]carbamoyl}-[1,1′-biphenyl]-2-carboxylic acid], the EC50 reads like this: under setting [1], less than 10 nM; under setting [2], less than 10 nM.
Turning to `O=C(NC(c1ccccc1)C1CC1)c1ccc(-c2cc(Cl)ccc2-c2nc3ccccc3[nH]2)c(C(=O)O)c1` (single isomer, unassigned) [Example 211, 2′-(1H-1,3-benzodiazol-2-yl)-5′-chloro-4-{[cyclopropyl(phenyl)methyl]carbamoyl}-[1,1′-biphenyl]-2-carboxylic acid], the EC50 by setting is: under setting [1], less than 10 nM; under setting [2], less than 10 nM.
For `CCCC(NC(=O)c1ccc(-c2cc(Cl)ccc2-c2nc3ccccc3[nH]2)c(C(=O)O)c1)c1ccc(F)cc1` (single isomer, unassigned) [Example 215, 2′-(1H-1,3-benzodiazol-2-yl)-5′-chloro-4-{[1-(4-fluorophenyl)butyl]carbamoyl}-[1,1′-biphenyl]-2-carboxylic acid], the EC50 is, setting by setting: under setting [1], 101 to 500 nM; under setting [2], 101 to 500 nM.
For `O=C(NC(c1ccccc1)C1CC1)c1ccc(-c2c(Cl)cccc2-c2nc3ccccc3[nH]2)c(C(=O)O)c1` (single isomer, unassigned) [Example 220], the EC50 by setting is: under setting [1], less than 10 nM; under setting [2], less than 10 nM.
Take `CCC[C@H](NC(=O)c1ccc(-c2c(Cl)cccc2-c2nc3ccccc3[nH]2)c(C(=O)O)c1)c1ccccc1OC` (single isomer, unassigned) [Example 221]: the EC50 is, setting by setting: under setting [1], less than 10 nM; under setting [2], less than 10 nM.
With `O=C(NC(c1ccc(Cl)cc1)C1CC1)c1ccc(-c2c(Cl)cccc2-c2nc3ccccc3[nH]2)c(C(=O)O)c1` (single isomer, unassigned) [Example 224], the EC50 was less than 10 nM under setting [1] and less than 10 nM under setting [2].
Take `O=C(NC(C1CCCCC1)C1CC1)c1ccc(-c2c(Cl)cccc2-c2nc3ccccc3[nH]2)c(C(=O)O)c1` (single isomer, unassigned) [Example 227]: the EC50 reads like this: under setting [1], less than 10 nM; under setting [2], less than 10 nM.
Take `CCCC(NC(=O)c1ccc(-c2c(Cl)cccc2-c2nc3ccccc3[nH]2)c(C(=O)O)c1)c1ccc(F)cc1` (single isomer, unassigned) [Example 228]: the EC50 is less than 10 nM under setting [1] and less than 10 nM under setting [2].
In the case of `O=C(N[C@H](c1ccccc1)C1CC1)c1ccc(-c2c(Cl)cccc2-c2nc3ccccc3[nH]2)c(C(=O)O)c1` (single isomer, unassigned) [Example 229], the EC50 runs as follows: under setting [1], 10 to 100 nM; under setting [2], 10 to 100 nM.
`CCC[C@@H](NC(=O)c1ccc(-c2c(Cl)cccc2-c2nc3cc(OC)ccc3[nH]2)c(C(=O)O)c1)C1CCCCC1` (single isomer, unassigned) [Example 231]: the EC50 was less than 10 nM under setting [1] and less than 10 nM under setting [2].
Turning to `CCC[C@H](NC(=O)c1ccc(-c2c(Cl)cccc2-c2nc3cc(OC)c(F)cc3[nH]2)c(C(=O)O)c1)c1ccc(F)cc1` (single isomer, unassigned) [Example 233], the EC50 is less than 10 nM under setting [1] and less than 10 nM under setting [2].
Turning to `COc1cc2nc(-c3cccc(Cl)c3-c3ccc(C(=O)N[C@H](c4ccccc4)C4CC4)cc3C(=O)O)[nH]c2cc1F` (single isomer, unassigned) [Example 234], the EC50 was less than 10 nM under setting [1] and less than 10 nM under setting [2].
For the molecule `COc1cc2nc(-c3cccc(Cl)c3-c3ccc(C(=O)NC(C4CCCCC4)C4CC4)cc3C(=O)O)[nH]c2cc1F` (single isomer, unassigned) [Example 235], the EC50 is, setting by setting: under setting [1], less than 10 nM; under setting [2], less than 10 nM.
In the case of `CCC[C@H](NC(=O)c1ccc(-c2c(Cl)cccc2-c2nc3cc(OC)c(F)cc3[nH]2)c(C(=O)O)c1)c1ccc(Cl)cc1` (single isomer, unassigned) [Example 236], the EC50 reads like this: under setting [1], less than 10 nM; under setting [2], less than 10 nM.
On to `COc1cc2nc(-c3cccc(Cl)c3-c3ccc(C(=O)N[C@H](c4ccc(Cl)cc4)C4CC4)cc3C(=O)O)[nH]c2cc1F` (single isomer, unassigned) [Example 237], for which the EC50 is less than 10 nM under setting [1] and less than 10 nM under setting [2].
As for `CCC[C@H](NC(=O)c1ccc(-c2c(Cl)cccc2-c2nc3cc(OC)c(F)cc3[nH]2)c(C(=O)O)c1)c1ccccc1OC` (single isomer, unassigned) [Example 238], the EC50 is less than 10 nM under setting [1] and less than 10 nM under setting [2].
Regarding `CCC[C@H](NC(=O)c1ccc(-c2c(Cl)cccc2-c2nc3cc(F)c(Cl)cc3[nH]2)c(C(=O)O)c1)c1ccc(Cl)cc1` (single isomer, unassigned) [Example 239], the EC50 runs as follows: under setting [1], less than 10 nM; under setting [2], less than 10 nM.
As to `O=C(N[C@H](c1ccc(Cl)cc1)C1CC1)c1ccc(-c2c(Cl)cccc2-c2nc3cc(F)c(Cl)cc3[nH]2)c(C(=O)O)c1` (single isomer, unassigned) [Example 240], the EC50 is, setting by setting: under setting [1], less than 10 nM; under setting [2], less than 10 nM.
As to `CCC[C@H](NC(=O)c1ccc(-c2c(Cl)cccc2-c2nc3cc(OC)c(F)cc3[nH]2)c(CO)c1)c1ccccc1` (stereo in doubt) [Example 131, (S)-2′-chloro-6′-(6-fluoro-5-methoxy-1H-1,3-benzodiazol-2-yl)-2-(hydroxymethyl)-N-(1-phenylbutyl)-[1,1′-biphenyl]-4-carboxamide], the EC50 (Table 3, HEK293 cells stably expressing human APJ receptor, read-out: APJ cAMP Human EC50) was in the range of 10 to 100 nM.
Regarding `CCC[C@@H](NC(=O)c1ccc(-c2cc(Cl)ccc2-c2nc3cc(OC)ccc3[nH]2)c(C(=O)O)c1)c1ccccc1` [Example 1, (R)-5′-Chloro-2′-(5-methoxy-1H-benzo[d]imidazol-2-yl)-4-((1-phenylbutyl)carbamoyl)-[1,1′-biphenyl]-2-carboxylic acid], the EC50 runs as follows: under setting [1], less than 10 nM; under setting [3], less than 10 nM.
Take `CCC[C@@H](NC(=O)c1ccc(-c2cc(Cl)ccc2-c2nc3ccccc3[nH]2)c(C(=O)O)c1)c1ccccc1` [Example 2, (R)-2′-(1H-Benzo[d]imidazol-2-yl)-5′-chloro-4-((1-phenylbutyl)carbamoyl)-[1,1′-biphenyl]-2-carboxylic acid]: the EC50 is, setting by setting: under setting [1], less than 10 nM; under setting [3], less than 10 nM.
